Results reported in patent publication US20240279218A1 (Hoffmann-La Roche Inc., priority 2016, published 2024).
Like-named read-outs stand apart in the source and are kept apart here.

Experiments:
[1] = molecular target: T1, h-GABA-A α5β3γ2 (Homo sapiens (Human), UniProt P18507+P31644); experiment: [3H]flumazenil competition binding assay, membranes of HEK293 cells expressing human GABAA receptors
How it was run: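 Membranes were prepared from HEK293 cells with transient human α5β3γ2 expression and assayed in Krebs-tris, pH 7.5. Bound radioactivity measured on filters by liquid scintillation.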

[2] = molecular target: T1, h-GABA-A α5β3γ2; experiment: Two-electrode voltage clamp electrophysiology in Xenopus oocytes expressing GABAA receptors, modulation of GABA EC20 current; type: cell-based
How it was run: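 Values are % modulation of an EC20 GABA response, derived point by point from the ratio of compound-exposed versus control current traces (extremum taken, 100×(fold−1)). Recordings used oocytes injected with human α5, β3, γ2 mRNA, clamped at −80 mV at room temperature, at least 3 oocytes each.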

[3] = displacement of [3H]flumazenil 0.5 nM, HEK293 cells expressing human receptors, mean of two determinations, read-out: Ki h-GABA-A α5β3γ2
[4] = % modulation of GABA EC20 = 100*(Fold increase−1), Xenopus oocytes
[5] = Xenopus oocytes, GABA EC20, test compound at approx. 30 fold its Ki

SMILES | Ki [1, 3] | Efficacy (GABA) % [2, 4] | Fold increase h-GABA-A α5β3γ2 oocyte [2, 5] | Ki ([1]; reference compounds, GABAA receptor α5β3γ2, read-out: Ki α5-human) | Efficacy (GABA) % ([2]; reference compounds, % modulation of GABA EC20) | Fold increase h-GABA-A α5β3γ2 oocyte ([2]; reference compounds, GABAA α5β3γ2 overexpressing oocytes, GABA EC20)
Cc1ccc(-c2noc(C)c2COc2ccc(C(=O)NC3CCOCC3)cn2)nn1 [Example 108, 6-((5-methyl-3-(6-methylpyridazin-3-yl)isoxazol-4-yl)methoxy)-N-tetrahydropyran-4-yl-pyridine-3-carboxamide] | 0.4 nM | 20% | 1.2 | – | – | –
Cc1ccc(-c2noc(C)c2COc2ccc(C(=O)NC3CCS(=O)(=O)CC3)cn2)cn1 [Example 21, N-(1,1-dioxothian-4-yl)-6-((5-methyl-3-(6-methylpyridin-3-yl)-1,2-oxazol-4-yl)methoxy)pyridine-3-carboxamide] | 5.4 nM | 119% | 2.19 | – | – | –
Cc1ccc(-c2noc(C)c2COc2ccc(C(=O)N3CC(C)(F)C3)nn2)cn1 [Example 67, (3-fluoro-3-methylazetidin-1-yl)(6-((5-methyl-3-(6-methylpyridin-3-yl)isoxazol-4-yl)methoxy)pyridazin-3-yl)methanone] | 11.8 nM | 59% | 1.59 | – | – | –
Cc1onc(-c2cccnc2)c1COc1ccc(C(=O)NC2CCOCC2)nn1 [RE-A, 6-((5-methyl-3-(3-pyridyl)isoxazol-4-yl)methoxy)-N-tetrahydropyran-4-yl-pyridazine-3-carboxamide, reference compound] | – | – | – | 65 nM | −3% | 0.97
Cc1ccc(-c2noc(C)c2COc2cnc(C(=O)N[C@@H]3CCCOC3)cn2)cn1 [Example 98, (R)-5-((5-methyl-3-(6-methylpyridin-3-yl)isoxazol-4-yl)methoxy)-N-(tetrahydropyran-3-yl)pyrazine-2-carboxamide] | 62.2 nM | 76% | 1.76 | – | – | –
CCC[C@@H](CO)NC(=O)c1ccc(OCc2c(-c3ccc(C)nc3)noc2C)nc1 [Example 4, (S)—N-(1-hydroxypentan-2-yl)-6-((5-methyl-3-(6-methylpyridin-3-yl)isoxazol-4-yl)methoxy)nicotinamide] | 7.3 nM | 150% | 2.5 | – | – | –
CNC(=O)c1ccc(OCc2c(-c3ccc(C)nc3)noc2C)nn1 [Example 46, N-methyl-6-((5-methyl-3-(6-methylpyridin-3-yl)isoxazol-4-yl)methoxy)pyridazine-3-carboxamide] | 3.5 nM | 63% | 1.63 | – | – | –
Cc1ccc(-c2noc(C)c2COc2ccc(C(=O)NC3CCOCC3)nn2)cn1 [Example 8, 6-((5-methyl-3-(6-methylpyridin-3-yl)isoxazol-4-yl)methoxy)-N-(tetrahydropyran-4-yl)pyridazine-3-carboxamide] | 8.7 nM | 97% | 1.97 | – | – | –
Cc1ccc(-c2noc(C)c2COc2cnc(C(=O)NC3CCC(F)(F)CC3)cn2)cn1 [Example 86, N-(4,4-difluorocyclohexyl)-5-((5-methyl-3-(6-methyl-3-pyridyl)isoxazol-4-yl)methoxy)pyrazine-2-carboxamide] | 17 nM | 120% | 2.2 | – | – | –
Cc1ccc(-c2noc(C)c2COc2ccc(C(=O)N3C4COCC3C4)nn2)cn1 [Example 157, 3-oxa-6-azabicyclo[3.1.1]heptan-6-yl(6-((5-methyl-3-(6-methylpyridin-3-yl)isoxazol-4-yl)methoxy)pyridazin-3-yl)methanone] | 6 nM | 76% | 1.76 | – | – | –
Cc1ccc(-c2noc(C)c2COc2ccc(C(=O)NC3CN(C(C)C)C3)nn2)cn1 [Example 116, N-(1-isopropylazetidin-3-yl)-6-((5-methyl-3-(6-methylpyridin-3-yl)isoxazol-4-yl)methoxy)pyridazine-3-carboxamide] | 4.9 nM | 59% | 1.59 | – | – | –
Cc1ccc(-c2noc(C)c2COc2cnc(C(=O)NC3CCS(=O)(=O)CC3)cn2)cn1 [Example 72, N-(1,1-dioxothian-4-yl)-5-((5-methyl-3-(6-methyl-3-pyridyl)isoxazol-4-yl)methoxy)pyrazine-2-carboxamide] | 11.4 nM | 130% | 2.3 | – | – | –
Cc1ccc(-c2noc(C)c2COc2ccc(C(=O)N[C@@H]3CCOC[C@H]3O)cn2)cn1 [Example 134, N-((3S,4R)-3-hydroxytetrahydro-2H-pyran-4-yl)-6-((5-methyl-3-(6-methylpyridin-3-yl)isoxazol-4-yl)methoxy)pyridine-3-carboxamide] | 20.8 nM | 66% | 1.66 | – | – | –
Cc1ccc(-c2noc(C3CC3)c2COc2ccc(C(=O)N[C@H]3CCOC3)nn2)cn1 [Example 182] | 59.6 nM | 141% | 2.41 | – | – | –
Cc1ccc(-c2noc(C3CC3)c2COc2ccc(C(=O)NC3(C)COC3)nn2)cn1 [Example 180] | 32.6 nM | 173% | 2.73 | – | – | –
Cc1ncc(-c2noc(C)c2COc2ccc(C(=O)NC3CCOCC3)cn2)cc1F [Example 143, 6-((3-(5-fluoro-6-methyl-3-pyridyl)-5-methyl-isoxazol-4-yl)methoxy)-N-tetrahydropyran-4-yl-pyridine-3-carboxamide] | 14.5 nM | 20% | 1.2 | – | – | –
Cc1ccc(-c2noc(C)c2COc2ccc(C(=O)NCC3(O)COC3)nn2)cn1 [Example 51, N-((3-hydroxyoxetan-3-yl)methyl)-6-((5-methyl-3-(6-methylpyridin-3-yl)isoxazol-4-yl)methoxy)pyridazine-3-carboxamide] | 10.8 nM | 57% | 1.57 | – | – | –
COCC1(NC(=O)c2ccc(OCc3c(-c4ccc(C)nc4)noc3C)nn2)CC1 [Example 54, N-(1-(methoxymethyl)cyclopropyl)-6-((5-methyl-3-(6-methylpyridin-3-yl)isoxazol-4-yl)methoxy)pyridazine-3-carboxamide] | 19.9 nM | 86% | 1.86 | – | – | –
Cc1ccc(-c2noc(C)c2COc2ccc(C(=O)N3CCC34COC4)nn2)cn1 [Example 63, (6-((5-methyl-3-(6-methylpyridin-3-yl)isoxazol-4-yl)methoxy)pyridazin-3-yl)(6-oxa-1-azaspiro[3.3]heptan-1-yl)methanone] | 4.6 nM | 79% | 1.79 | – | – | –
Cc1ccc(-c2noc(C)c2COc2ccc(C(=O)N[C@@H]3CCOC[C@@H]3C)nn2)cn1 [Example 52, 6-((5-methyl-3-(6-methylpyridin-3-yl)isoxazol-4-yl)methoxy)-N-((3R,4R)-3-methyltetrahydropyran-4-yl)pyridazine-3-carboxamide] | 28.9 nM | 67% | 1.67 | – | – | –
Cc1ccc(-c2noc(C)c2COc2cnc(C(=O)NC3CC3)cn2)cn1 [Example 74, N-cyclopropyl-5-((5-methyl-3-(6-methyl-3-pyridyl)isoxazol-4-yl)methoxy)pyrazine-2-carboxamide] | 9.2 nM | 28% | 1.28 | – | – | –
